{
  "source": "patent US20230157952A1",
  "about": "“METHOD FOR IMPROVING THE STABILITY OF A PHARMACEUTICAL COMPOSITION COMPRISING A HIGH PENETRATION DRUG, AND THE PHARMACEUTICAL COMPOSITION OBTAINED THEREFROM” (Techfields Inc., priority 2020, published 2023)",
  "experiment": "Effect of temperature (and pH) on the stability of the solution (purity)",
  "format": "physicochemical",
  "settings": "7% solution in water",
  "data": [
    {"compound": "CCN(CC)CCOC(=O)CCc1nc(-c2ccccc2)c(-c2ccccc2)o1.Cl", "values": [
      {"measurement": "Purity(%) at day 0", "setting": "pH 1.0, day 0", "value": "98.2 ± 0.3", "unit": "%"},
      {"measurement": "Purity(%) at day 21 (5° C.)", "setting": "pH 1.0, day 21, 5° C.", "value": "90.1 ± 0.3", "unit": "%"},
      {"measurement": "Purity(%) at day 21 (25° C.)", "setting": "pH 1.0, day 21, 25° C.", "value": "59.9 ± 0.3", "unit": "%"},
      {"measurement": "Purity(%) at day 21 (40° C.)", "setting": "pH 1.0, day 21, 40° C.", "value": "7.9 ± 0.3", "unit": "%"},
      {"measurement": "Purity (%) at day 21 (60° C.)", "setting": "pH 1.0, day 21, 60° C.", "value": 0, "unit": "%"},
      {"measurement": "Purity(%) at day 0", "setting": "pH 2.0, day 0", "value": "98.4 ± 0.3", "unit": "%"},
      {"measurement": "Purity(%) at day 21 (5° C.)", "setting": "pH 2.0, day 21, 5° C.", "value": "93.0 ± 0.2", "unit": "%"},
      {"measurement": "Purity(%) at day 21 (25° C.)", "setting": "pH 2.0, day 21, 25° C.", "value": "74.8 ± 0.2", "unit": "%"},
      {"measurement": "Purity(%) at day 21 (40° C.)", "setting": "pH 2.0, day 21, 40° C.", "value": "17.6 ± 0.2", "unit": "%"},
      {"measurement": "Purity (%) at day 21 (60° C.)", "setting": "pH 2.0, day 21, 60° C.", "value": 0, "unit": "%"},
      {"measurement": "Purity(%) at day 0", "setting": "pH 3.0, day 0", "value": "98.6 ± 0.1", "unit": "%"},
      {"measurement": "Purity(%) at day 21 (5° C.)", "setting": "pH 3.0, day 21, 5° C.", "value": "96.9 ± 0.2", "unit": "%"},
      {"measurement": "Purity(%) at day 21 (25° C.)", "setting": "pH 3.0, day 21, 25° C.", "value": "88.9 ± 0.2", "unit": "%"},
      {"measurement": "Purity(%) at day 21 (40° C.)", "setting": "pH 3.0, day 21, 40° C.", "value": "36.4 ± 0.2", "unit": "%"},
      {"measurement": "Purity (%) at day 21 (60° C.)", "setting": "pH 3.0, day 21, 60° C.", "value": 0, "unit": "%"},
      {"measurement": "Purity(%) at day 0", "setting": "pH 3.7, day 0", "value": "98.7 ± 0.2", "unit": "%"},
      {"measurement": "Purity(%) at day 21 (5° C.)", "setting": "pH 3.7, day 21, 5° C.", "value": "97.8 ± 0.1", "unit": "%"},
      {"measurement": "Purity(%) at day 21 (25° C.)", "setting": "pH 3.7, day 21, 25° C.", "value": "94.5 ± 0.2", "unit": "%"},
      {"measurement": "Purity(%) at day 21 (40° C.)", "setting": "pH 3.7, day 21, 40° C.", "value": "50.6 ± 0.2", "unit": "%"},
      {"measurement": "Purity (%) at day 21 (60° C.)", "setting": "pH 3.7, day 21, 60° C.", "value": "7.3 ± 0.3", "unit": "%"},
      {"measurement": "Purity(%) at day 0", "setting": "pH 4.0, day 0", "value": "98.8 ± 0.1", "unit": "%"},
      {"measurement": "Purity(%) at day 21 (5° C.)", "setting": "pH 4.0, day 21, 5° C.", "value": "97.9 ± 0.1", "unit": "%"},
      {"measurement": "Purity(%) at day 21 (25° C.)", "setting": "pH 4.0, day 21, 25° C.", "value": "95.1 ± 0.1", "unit": "%"},
      {"measurement": "Purity(%) at day 21 (40° C.)", "setting": "pH 4.0, day 21, 40° C.", "value": "53.2 ± 0.2", "unit": "%"},
      {"measurement": "Purity (%) at day 21 (60° C.)", "setting": "pH 4.0, day 21, 60° C.", "value": "20.2 ± 0.2", "unit": "%"},
      {"measurement": "Purity(%) at day 0", "setting": "pH 4.3, day 0", "value": "98.8 ± 0.2", "unit": "%"},
      {"measurement": "Purity(%) at day 21 (5° C.)", "setting": "pH 4.3, day 21, 5° C.", "value": "97.9 ± 0.2", "unit": "%"},
      {"measurement": "Purity(%) at day 21 (25° C.)", "setting": "pH 4.3, day 21, 25° C.", "value": "95.2 ± 0.2", "unit": "%"},
      {"measurement": "Purity(%) at day 21 (40° C.)", "setting": "pH 4.3, day 21, 40° C.", "value": "54.8 ± 0.1", "unit": "%"},
      {"measurement": "Purity (%) at day 21 (60° C.)", "setting": "pH 4.3, day 21, 60° C.", "value": "21.8 ± 0.3", "unit": "%"},
      {"measurement": "Purity(%) at day 0", "setting": "pH 4.6, day 0", "value": "98.7 ± 0.1", "unit": "%"},
      {"measurement": "Purity(%) at day 21 (5° C.)", "setting": "pH 4.6, day 21, 5° C.", "value": "97.8 ± 0.2", "unit": "%"},
      {"measurement": "Purity(%) at day 21 (25° C.)", "setting": "pH 4.6, day 21, 25° C.", "value": "95.0 ± 0.1", "unit": "%"},
      {"measurement": "Purity(%) at day 21 (40° C.)", "setting": "pH 4.6, day 21, 40° C.", "value": "54.7 ± 0.2", "unit": "%"},
      {"measurement": "Purity (%) at day 21 (60° C.)", "setting": "pH 4.6, day 21, 60° C.", "value": "15.5 ± 0.3", "unit": "%"},
      {"measurement": "Purity(%) at day 0", "setting": "pH 5.0, day 0", "value": "98.6 ± 0.3", "unit": "%"},
      {"measurement": "Purity(%) at day 21 (5° C.)", "setting": "pH 5.0, day 21, 5° C.", "value": "96.3 ± 0.2", "unit": "%"},
      {"measurement": "Purity(%) at day 21 (25° C.)", "setting": "pH 5.0, day 21, 25° C.", "value": "89.8 ± 0.1", "unit": "%"},
      {"measurement": "Purity(%) at day 21 (40° C.)", "setting": "pH 5.0, day 21, 40° C.", "value": "30.1 ± 0.2", "unit": "%"},
      {"measurement": "Purity (%) at day 21 (60° C.)", "setting": "pH 5.0, day 21, 60° C.", "value": "3.2 ± 0.2", "unit": "%"},
      {"measurement": "Purity(%) at day 0", "setting": "pH 6.0, day 0", "value": "98.4 ± 0.2", "unit": "%"},
      {"measurement": "Purity(%) at day 21 (5° C.)", "setting": "pH 6.0, day 21, 5° C.", "value": "93.4 ± 0.2", "unit": "%"},
      {"measurement": "Purity(%) at day 21 (25° C.)", "setting": "pH 6.0, day 21, 25° C.", "value": "73.9 ± 0.2", "unit": "%"},
      {"measurement": "Purity(%) at day 21 (40° C.)", "setting": "pH 6.0, day 21, 40° C.", "value": "16.5 ± 0.2", "unit": "%"},
      {"measurement": "Purity (%) at day 21 (60° C.)", "setting": "pH 6.0, day 21, 60° C.", "value": 0, "unit": "%"},
      {"measurement": "Purity(%) at day 0", "setting": "pH 7.0, day 0", "value": "98.2 ± 0.3", "unit": "%"},
      {"measurement": "Purity(%) at day 21 (5° C.)", "setting": "pH 7.0, day 21, 5° C.", "value": "89.2 ± 0.3", "unit": "%"},
      {"measurement": "Purity(%) at day 21 (25° C.)", "setting": "pH 7.0, day 21, 25° C.", "value": "59.7 ± 0.2", "unit": "%"},
      {"measurement": "Purity(%) at day 21 (40° C.)", "setting": "pH 7.0, day 21, 40° C.", "value": "7.1 ± 0.3", "unit": "%"},
      {"measurement": "Purity (%) at day 21 (60° C.)", "setting": "pH 7.0, day 21, 60° C.", "value": 0, "unit": "%"},
      {"measurement": "Purity(%) at day 0", "setting": "pH 8.0, day 0", "value": "98.0 ± 0.3", "unit": "%"},
      {"measurement": "Purity(%) at day 21 (5° C.)", "setting": "pH 8.0, day 21, 5° C.", "value": "77.1 ± 0.3", "unit": "%"},
      {"measurement": "Purity(%) at day 21 (25° C.)", "setting": "pH 8.0, day 21, 25° C.", "value": "40.8 ± 0.3", "unit": "%"},
      {"measurement": "Purity(%) at day 21 (40° C.)", "setting": "pH 8.0, day 21, 40° C.", "value": 0, "unit": "%"},
      {"measurement": "Purity (%) at day 21 (60° C.)", "setting": "pH 8.0, day 21, 60° C.", "value": 0, "unit": "%"}
    ]},
    {"compound": "CCN(CC)CCOC(=O)Cc1ccccc1Oc1ccc(Cl)cc1Cl.Cl", "note": "[2-(diethylamino)ethyl 2-(2,4-dichlorophenoxy)benzeneacetate.HCl]", "values": [
      {"measurement": "Stability of the solution at a temperature higher than 40° C. and a pH lower than 3 or greater than 6", "value": "not stable"}
    ]}
  ]
}
